Test results from the supplement of paper PMC11451515.

Test system: SEM cells
Test: cell viability relative to DMSO control; higher = less cytotoxic
Conditions: 48 h
How it was run: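 NOMO1 or SEM (500 cells/well) or P12-Ichikawa (1000 cells/well) leukemia cells were adapted for at least four passages in each medium. They were seeded in 1536-well plates (5 μl) and pin-dosed with library compounds in DMSO over an 11-point threefold series, 47 μM to 0.79 nM. CellTiter-Glo One luminescence was read after 48 h at 37°C. Viability is the per-plate percentage relative to DMSO wells, with cell-free wells as background.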

[1] = HPLM + 10% dialyzed FBS, 0.000781 µM
[2] = HPLM + 10% dialyzed FBS, 0.00234 µM
[3] = HPLM + 10% dialyzed FBS, 0.00702 µM
[4] = HPLM + 10% dialyzed FBS, 0.0211 µM
[5] = HPLM + 10% dialyzed FBS, 0.0632 µM
[6] = HPLM + 10% dialyzed FBS, 0.19 µM
[7] = HPLM + 10% dialyzed FBS, 0.569 µM
[8] = HPLM + 10% dialyzed FBS, 1.71 µM
[9] = HPLM + 10% dialyzed FBS, 5.12 µM
[10] = HPLM + 10% dialyzed FBS, 15.4 µM
[11] = HPLM + 10% dialyzed FBS, 46.1 µM
[12] = RPMI 5 mM glucose + 10% FBS, 0.000781 µM
[13] = RPMI 5 mM glucose + 10% FBS, 0.00234 µM
[14] = RPMI 5 mM glucose + 10% FBS, 0.00702 µM
[15] = RPMI 5 mM glucose + 10% FBS, 0.0211 µM
[16] = RPMI 5 mM glucose + 10% FBS, 0.0632 µM
[17] = RPMI 5 mM glucose + 10% FBS, 0.19 µM
[18] = RPMI 5 mM glucose + 10% FBS, 0.569 µM
[19] = RPMI 5 mM glucose + 10% FBS, 1.71 µM
[20] = RPMI 5 mM glucose + 10% FBS, 5.12 µM
[21] = RPMI 5 mM glucose + 10% FBS, 15.4 µM
[22] = RPMI 5 mM glucose + 10% FBS, 46.1 µM
[23] = RPMI 5 mM glucose + 10% dialyzed FBS, 0.000781 µM
[24] = RPMI 5 mM glucose + 10% dialyzed FBS, 0.00234 µM
[25] = RPMI 5 mM glucose + 10% dialyzed FBS, 0.00702 µM
[26] = RPMI 5 mM glucose + 10% dialyzed FBS, 0.0211 µM
[27] = RPMI 5 mM glucose + 10% dialyzed FBS, 0.0632 µM
[28] = RPMI 5 mM glucose + 10% dialyzed FBS, 0.19 µM
[29] = RPMI 5 mM glucose + 10% dialyzed FBS, 0.569 µM
[30] = RPMI 5 mM glucose + 10% dialyzed FBS, 1.71 µM
[31] = RPMI 5 mM glucose + 10% dialyzed FBS, 5.12 µM
[32] = RPMI 5 mM glucose + 10% dialyzed FBS, 15.4 µM
[33] = RPMI 5 mM glucose + 10% dialyzed FBS, 46.1 µM

Structure (SMILES)	cell viability [1]	cell viability [2]	cell viability [3]	cell viability [4]	cell viability [5]	cell viability [6]	cell viability [7]	cell viability [8]	cell viability [9]	cell viability [10]	cell viability [11]	cell viability [12]	cell viability [13]	cell viability [14]	cell viability [15]	cell viability [16]	cell viability [17]	cell viability [18]	cell viability [19]	cell viability [20]	cell viability [21]	cell viability [22]	cell viability [23]	cell viability [24]	cell viability [25]	cell viability [26]	cell viability [27]	cell viability [28]	cell viability [29]	cell viability [30]	cell viability [31]	cell viability [32]	cell viability [33]
Nc1ccccc1NC(=O)c1ccc(CNc2nccc(-c3cccnc3)n2)cc1	98.4%	101%	117%	109%	119%	110%	73.1%	25.5%	8.57%	6.62%	7.25%	89.7%	94.4%	91.6%	97.6%	105%	105%	69.4%	21.8%	7.2%	6.22%	6.49%	92.7%	111%	106%	106%	117%	105%	62.8%	17.5%	7.07%	6.52%	7.92%
CN1C(=O)\C(=C/C(=C1/NC2=C(F)C=C(I)C=C2)C(=O)NOCCO)C	92.4%	107%	106%	91.8%	91.7%	78.7%	67.8%	67.5%	77.2%	70.6%	72.9%	97.1%	102%	93.9%	99%	76.9%	72.7%	82%	86%	84%	70.8%	65%	109%	91.8%	98%	78.3%	77.7%	60.4%	72.3%	68.1%	63.2%	59%	67.8%
CN(C)CCOC(c1ccccc1)c1ccccc1	90.4%	90.5%	108%	110%	106%	98.1%	97.1%	94.3%	91.8%	92.9%	90.3%	107%	107%	113%	105%	111%	114%	104%	117%	94.1%	116%	97.5%	104%	96.8%	115%	121%	119%	114%	122%	102%	94.8%	94.4%	92%
O=C(Nc1ccc(OC(F)(F)F)cc1)c1sccc1NCc1ccnc2ccccc12	115%	115%	114%	127%	125%	115%	122%	82.3%	47.6%	24.8%	16.8%	–	–	–	–	–	–	–	–	–	–	–	122%	117%	127%	135%	125%	136%	130%	99.2%	87.8%	24.1%	15.8%
Cc1cc(O)c2c3c4c(cc(O)c13)C(C)(C)C(=O)c1c(O)cc(O)c(c1-4)C2=O	104%	110%	108%	91.5%	120%	114%	106%	117%	98.7%	90.8%	66.1%	–	–	–	–	–	–	–	–	–	–	–	91.4%	90.9%	92%	94.3%	110%	113%	98%	84.2%	97.4%	88.6%	65.5%
CC[C@H]1OC(=O)[C@H](C)[C@@H](O[C@H]2C[C@@](C)(OC)[C@@H](O)[C@H](C)O2)[C@H](C)[C@@H](O[C@@H]2O[C@@H](C)C[C@H](N(C)C)[C@H]2O)[C@](C)(O)C[C@@H](C)C(=O)[C@H](C)[C@@H](O)[C@]1(C)O	79.6%	80.8%	87.8%	95.4%	80.6%	85.6%	105%	81.4%	89.8%	82.3%	32.2%	83%	94.3%	101%	102%	90%	105%	106%	106%	94.8%	35%	18.7%	79.5%	84.9%	84.7%	96.9%	89.4%	94.5%	92.2%	86.8%	80.6%	80.7%	24.5%
O=C1c2c(O)cccc2[C@H]([C@@H]2O[C@H](CO)[C@@H](O)[C@H](O)[C@H]2O)c2cc(CO)cc(O)c21	99.7%	39%	110%	105%	112%	111%	116%	108%	112%	116%	108%	89.4%	30.7%	92.8%	84%	98.2%	96.3%	106%	91.3%	93%	93.5%	106%	94%	27.4%	92.4%	96.7%	102%	101%	114%	109%	112%	90.1%	119%
O=C1Nc2ccccc2/C1=C1\Nc2ccccc2C1=O	82.1%	85.1%	85.5%	84.9%	80.4%	64.2%	63.3%	75%	73.9%	86.8%	69.8%	104%	87.4%	90.6%	87.5%	90.1%	79.4%	84%	71.2%	81.4%	78.4%	77.7%	89.2%	91.7%	85.2%	85.4%	82.5%	70.6%	60.6%	67%	74.4%	86%	80.3%
